# According to patent US12371428B2 (Exelixis, Inc., priority 2019, dated 2025):
# Read-outs that look alike come from different tables or passages of the source.
# Legend:
# Type in all cases: cell-based
# [1] = target: AXL (phospho-AXL, Gas6-stimulated A-172 glioblastoma cells) (Homo sapiens (Human), UniProt P30530); experiment: AXL autophosphorylation ELISA in A-172 cells (Example E); details: cellular activity, read-out: Axl IC50
# Method: A-172 cells were incubated at 37° C., 5% CO2 for 24 h and then starved for 24 h in serum-free medium. Test compounds were serially diluted to produce an 8-point dose curve in fresh serum-free medium to a final concentration of 0.3% DMSO (vehicle) and added to the cells and incubated for 1 h. […] Lysates were collected and 100 μL/well added into the human phospho-AXL DuoSet IC ELISA (R&D Systems #DYC2228-2). […] Positive control wells (100% activity) contained Gas6-stimulated, DMSO-treated cell lysates. Negative control wells (0% activity) contained Gas6-stimulated, reference inhibitor-treated cell lysates. IC50 values were calculated by nonlinear regression analysis using a 4-parameter logistic curve fit in ActivityBase XE (IDBS).
# [2] = target: KDR (phospho-KDR, VEGF165-stimulated HUVEC cells) (Homo sapiens (Human), UniProt P35968); experiment: KDR autophosphorylation ELISA in HUVEC cells (Example G); details: cellular activity; KDR autophosphorylation ELISA in HUVEC cells
# Outline: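 Cells seeded, grown 24 h at 37 °C, starved 24 h serum-free; cpd 8-pt curve, 0.3% DMSO, 1 h; VEGF165 100 ng/mL, 5 min; cold PBS wash, lysis with orthovanadate and protease/phosphatase inhibitors; pKDR ELISA; IC50 by 4-parameter logistic regression.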
# [3] = target: Met (phospho-Met, HGF-stimulated PC-3 prostate cancer cells) (Homo sapiens (Human), UniProt P08581); experiment: Met autophosphorylation ELISA in PC-3 cells (Example F); details: cellular activity, read-out: c-Met IC50
# Outline: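 Sandwich ELISA for phospho-Met (panTyr) in PC-3 lysates. Cells starved 3 h serum-free, compound 1 h (8-pt curve, 0.3% DMSO), HGF 100 ng/mL 10 min. 100% = HGF + DMSO; 0% = HGF + reference inhibitor. IC50 by 4-parameter fit.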
# [4] = target: Mer (phospho-Mer, MERTK-transfected 293A cells) (Homo sapiens (Human), UniProt Q12866); experiment: Mer autophosphorylation ELISA in transient transfected 293A cells (Example H); details: cellular activity
# Outline: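 Human MERTK transiently transfected into 293A cells; compounds as 8-point dose curve in serum-free medium (0.3% DMSO final), 1 h. Lysates assayed by phospho-Mer sandwich ELISA against phospho-Mer standard; DMSO = 100%, reference inhibitor = 0% activity; IC50 from 4-parameter logistic fit.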
# [5] = AXL autophosphorylation ELISA in A-172 cells
# [6] = Met autophosphorylation ELISA in PC-3 cells
# [7] = Mer autophosphorylation ELISA in transient transfected 293A cells
# KDR (phospho-KDR, VEGF165-stimulated HUVEC cells), sequence (P35968 20-1356): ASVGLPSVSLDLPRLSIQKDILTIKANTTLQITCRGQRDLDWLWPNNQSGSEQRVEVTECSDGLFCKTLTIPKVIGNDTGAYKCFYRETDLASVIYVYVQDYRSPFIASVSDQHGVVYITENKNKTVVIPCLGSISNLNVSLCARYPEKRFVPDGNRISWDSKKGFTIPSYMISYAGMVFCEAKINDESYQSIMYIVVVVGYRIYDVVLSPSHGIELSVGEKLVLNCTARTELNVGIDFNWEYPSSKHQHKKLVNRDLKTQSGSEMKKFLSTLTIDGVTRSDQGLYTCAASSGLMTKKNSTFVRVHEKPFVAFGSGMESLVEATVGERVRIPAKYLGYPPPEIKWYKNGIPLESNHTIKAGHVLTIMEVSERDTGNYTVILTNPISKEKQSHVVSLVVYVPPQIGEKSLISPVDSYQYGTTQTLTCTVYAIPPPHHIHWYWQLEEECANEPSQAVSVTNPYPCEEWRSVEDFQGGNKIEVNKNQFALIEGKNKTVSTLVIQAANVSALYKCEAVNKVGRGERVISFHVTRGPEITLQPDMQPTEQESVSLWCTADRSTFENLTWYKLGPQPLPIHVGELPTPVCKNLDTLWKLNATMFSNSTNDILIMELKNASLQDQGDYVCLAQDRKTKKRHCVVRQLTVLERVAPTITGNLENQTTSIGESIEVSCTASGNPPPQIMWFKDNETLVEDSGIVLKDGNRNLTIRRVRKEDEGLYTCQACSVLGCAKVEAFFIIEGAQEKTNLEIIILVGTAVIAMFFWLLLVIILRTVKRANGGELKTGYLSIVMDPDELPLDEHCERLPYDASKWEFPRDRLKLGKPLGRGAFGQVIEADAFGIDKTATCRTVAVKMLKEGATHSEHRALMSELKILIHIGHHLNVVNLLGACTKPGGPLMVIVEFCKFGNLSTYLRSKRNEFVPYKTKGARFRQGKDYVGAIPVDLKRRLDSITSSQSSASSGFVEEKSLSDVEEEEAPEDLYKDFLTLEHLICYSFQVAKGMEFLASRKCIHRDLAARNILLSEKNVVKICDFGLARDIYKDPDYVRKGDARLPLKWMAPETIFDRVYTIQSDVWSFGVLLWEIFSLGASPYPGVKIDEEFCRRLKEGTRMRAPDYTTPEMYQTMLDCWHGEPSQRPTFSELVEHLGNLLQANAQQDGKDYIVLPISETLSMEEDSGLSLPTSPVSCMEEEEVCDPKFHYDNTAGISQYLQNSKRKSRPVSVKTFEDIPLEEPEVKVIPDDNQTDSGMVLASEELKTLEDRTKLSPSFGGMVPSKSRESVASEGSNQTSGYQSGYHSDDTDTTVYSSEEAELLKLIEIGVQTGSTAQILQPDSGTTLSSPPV
# Mer (phospho-Mer, MERTK-transfected 293A cells), sequence (Q12866 21-999): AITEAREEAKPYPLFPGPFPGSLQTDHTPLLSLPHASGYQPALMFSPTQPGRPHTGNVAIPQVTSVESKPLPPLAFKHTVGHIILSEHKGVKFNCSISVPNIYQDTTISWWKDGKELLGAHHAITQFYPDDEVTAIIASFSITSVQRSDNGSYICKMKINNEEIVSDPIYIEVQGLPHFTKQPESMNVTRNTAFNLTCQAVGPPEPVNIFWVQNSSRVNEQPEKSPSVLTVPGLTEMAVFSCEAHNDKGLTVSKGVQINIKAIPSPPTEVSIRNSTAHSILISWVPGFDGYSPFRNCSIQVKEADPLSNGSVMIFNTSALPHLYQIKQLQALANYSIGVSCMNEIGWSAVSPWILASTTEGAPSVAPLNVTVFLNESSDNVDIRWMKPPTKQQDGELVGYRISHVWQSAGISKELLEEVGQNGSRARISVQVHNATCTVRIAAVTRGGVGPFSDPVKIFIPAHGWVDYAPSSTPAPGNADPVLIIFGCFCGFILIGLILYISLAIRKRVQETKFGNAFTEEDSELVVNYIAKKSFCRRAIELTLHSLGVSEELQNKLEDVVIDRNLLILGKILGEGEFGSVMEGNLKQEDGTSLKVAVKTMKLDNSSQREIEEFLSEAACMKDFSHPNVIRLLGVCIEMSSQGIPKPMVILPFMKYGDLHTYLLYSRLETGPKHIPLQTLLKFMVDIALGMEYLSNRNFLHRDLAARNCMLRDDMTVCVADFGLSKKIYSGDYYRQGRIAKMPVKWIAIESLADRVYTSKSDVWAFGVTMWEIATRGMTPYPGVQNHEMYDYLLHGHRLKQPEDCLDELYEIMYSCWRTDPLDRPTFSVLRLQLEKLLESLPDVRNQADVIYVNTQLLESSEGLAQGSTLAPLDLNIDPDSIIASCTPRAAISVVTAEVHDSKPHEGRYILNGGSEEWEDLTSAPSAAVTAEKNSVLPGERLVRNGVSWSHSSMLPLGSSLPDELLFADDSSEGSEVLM
# AXL (phospho-AXL, Gas6-stimulated A-172 glioblastoma cells), sequence (P30530 26-894): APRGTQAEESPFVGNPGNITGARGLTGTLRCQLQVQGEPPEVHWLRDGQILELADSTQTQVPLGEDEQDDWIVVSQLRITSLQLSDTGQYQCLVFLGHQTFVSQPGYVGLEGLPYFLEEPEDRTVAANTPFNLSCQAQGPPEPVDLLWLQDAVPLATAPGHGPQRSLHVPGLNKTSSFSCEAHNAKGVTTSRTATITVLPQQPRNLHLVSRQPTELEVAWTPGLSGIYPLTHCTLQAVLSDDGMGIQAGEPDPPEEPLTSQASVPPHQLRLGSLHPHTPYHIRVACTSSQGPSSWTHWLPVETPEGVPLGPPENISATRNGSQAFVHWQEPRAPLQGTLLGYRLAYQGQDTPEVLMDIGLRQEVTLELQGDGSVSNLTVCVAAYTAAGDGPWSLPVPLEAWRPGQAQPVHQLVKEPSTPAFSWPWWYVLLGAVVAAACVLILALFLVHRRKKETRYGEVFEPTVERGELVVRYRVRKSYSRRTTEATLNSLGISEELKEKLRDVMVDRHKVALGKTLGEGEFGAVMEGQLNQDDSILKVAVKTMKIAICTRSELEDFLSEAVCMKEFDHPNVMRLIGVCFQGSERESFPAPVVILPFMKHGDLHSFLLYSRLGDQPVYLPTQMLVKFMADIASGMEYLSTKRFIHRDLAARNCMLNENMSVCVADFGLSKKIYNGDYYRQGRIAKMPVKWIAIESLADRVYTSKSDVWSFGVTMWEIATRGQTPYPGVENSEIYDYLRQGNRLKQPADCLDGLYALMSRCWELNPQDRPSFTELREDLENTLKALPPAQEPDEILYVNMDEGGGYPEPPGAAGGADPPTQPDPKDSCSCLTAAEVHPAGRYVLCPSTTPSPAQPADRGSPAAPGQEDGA
# Met (phospho-Met, HGF-stimulated PC-3 prostate cancer cells), sequence (P08581 25-1390): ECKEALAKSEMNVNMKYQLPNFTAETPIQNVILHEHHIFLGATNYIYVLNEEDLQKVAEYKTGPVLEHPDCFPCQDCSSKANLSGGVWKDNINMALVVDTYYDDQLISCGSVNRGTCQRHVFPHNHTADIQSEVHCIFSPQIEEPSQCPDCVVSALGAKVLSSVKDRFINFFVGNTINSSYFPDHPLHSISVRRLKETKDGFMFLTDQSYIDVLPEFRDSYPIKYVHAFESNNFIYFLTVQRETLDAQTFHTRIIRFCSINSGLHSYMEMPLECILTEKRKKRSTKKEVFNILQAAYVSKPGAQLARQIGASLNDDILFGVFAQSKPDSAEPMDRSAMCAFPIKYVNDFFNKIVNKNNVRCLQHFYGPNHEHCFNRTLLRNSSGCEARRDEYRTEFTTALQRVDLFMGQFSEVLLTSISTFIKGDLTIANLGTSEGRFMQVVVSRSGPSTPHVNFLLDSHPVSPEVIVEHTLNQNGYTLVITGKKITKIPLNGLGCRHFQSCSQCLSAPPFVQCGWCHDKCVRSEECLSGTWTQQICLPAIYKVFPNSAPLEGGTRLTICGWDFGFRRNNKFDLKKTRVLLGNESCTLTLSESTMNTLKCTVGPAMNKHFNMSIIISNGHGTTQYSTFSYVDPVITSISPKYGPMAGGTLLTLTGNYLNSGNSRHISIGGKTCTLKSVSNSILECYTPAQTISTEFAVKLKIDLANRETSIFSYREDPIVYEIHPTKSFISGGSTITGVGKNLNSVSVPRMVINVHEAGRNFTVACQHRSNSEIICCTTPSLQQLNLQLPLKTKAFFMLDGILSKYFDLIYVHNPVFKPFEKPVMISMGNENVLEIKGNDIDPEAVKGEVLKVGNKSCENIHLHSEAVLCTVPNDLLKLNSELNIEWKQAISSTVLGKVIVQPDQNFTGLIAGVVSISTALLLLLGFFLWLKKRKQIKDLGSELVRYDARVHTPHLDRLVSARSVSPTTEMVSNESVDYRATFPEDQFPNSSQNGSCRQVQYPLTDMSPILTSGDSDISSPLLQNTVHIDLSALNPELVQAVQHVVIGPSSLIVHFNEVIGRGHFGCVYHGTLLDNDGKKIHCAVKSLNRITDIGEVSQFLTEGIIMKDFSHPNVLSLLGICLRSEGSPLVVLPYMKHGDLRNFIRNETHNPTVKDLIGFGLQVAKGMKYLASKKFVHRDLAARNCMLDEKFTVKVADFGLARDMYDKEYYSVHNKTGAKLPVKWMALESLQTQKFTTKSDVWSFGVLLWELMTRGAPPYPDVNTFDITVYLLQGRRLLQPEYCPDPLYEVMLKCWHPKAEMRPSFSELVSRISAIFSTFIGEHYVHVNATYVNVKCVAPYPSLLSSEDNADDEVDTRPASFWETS
SMILES,"IC50 [1, 5]",IC50 [2],"IC50 [3, 6]","IC50 [4, 7]",IC50 ([1]; A-172 cells),IC50 ([3]; PC-3 cells),IC50 ([4]; transfected 293A cells)
"COc1cc2nccc(Oc3ccc(NC(=O)c4cn(C5(C)COC5)cc(-c5ccc(F)cc5)c4=O)cc3F)c2nc1OC [Compound 54, N-[4-[(6,7-Dimethoxy-1,5-naphthyridin-4-yl)oxy]-3-fluorophenyl]-5-(4-fluorophenyl)-1-(3-methyloxetan-3-yl)-4-oxopyridine-3-carboxamide]",< 100 nM,> 300 nM,< 100 nM,< 100 nM,,,
"COc1cc2nccc(Oc3ccc(NC(=O)c4cn(C5(C)COC5)cc(-c5ccc(F)cc5)c4=O)cc3F)c2cc1OC [Compound 55, N-[4-(6,7-Dimethoxyquinolin-4-yl)oxy-3-fluorophenyl]-5-(4-fluorophenyl)-1-(3-methyloxetan-3-yl)-4-oxopyridine-3-carboxamide]",< 100 nM,> 300 nM,< 100 nM,< 100 nM,,,
"COc1cc2nccc(Oc3ccc(NC(=O)c4cn(C(C)(C)CO)cc(-c5ccc(F)cc5)c4=O)cc3F)c2nc1OC [Compound 56, N-[4-[(6,7-Dimethoxy-1,5-naphthyridin-4-yl)oxy]-3-fluorophenyl]-5-(4-fluorophenyl)-1-(1-hydroxy-2-methylpropan-2-yl)-4-oxopyridine-3-carboxamide]",< 100 nM,> 300 nM,< 100 nM,< 100 nM,,,
"COc1cc2nccc(Oc3ccc(NC(=O)c4cn(C(C)(C)CO)cc(-c5ccc(F)cc5)c4=O)cc3F)c2cc1OC [Compound 57, N-[4-(6,7-Dimethoxyquinolin-4-yl)oxy-3-fluorophenyl]-5-(4-fluorophenyl)-1-(1-hydroxy-2-methylpropan-2-yl)-4-oxopyridine-3-carboxamide]",< 100 nM,> 300 nM,< 100 nM,< 100 nM,,,
"COCCOc1nc2c(Oc3ccc(NC(=O)c4c(C)nc(C)c(-c5ccc(F)cc5)c4O)cc3F)ccnc2cc1OC [Compound 207, N-[3-Fluoro-4-[[7-methoxy-6-(2-methoxyethoxy)-1,5-naphthyridin-4-yl]oxy]phenyl]-5-(4-fluorophenyl)-4-hydroxy-2,6-dimethylpyridine-3-carboxamide]",< 100 nM,< 100 nM,< 100 nM,< 100 nM,,,
"COCCOc1nc2c(Oc3ccc(NC(=O)c4c(C)nc(C)c(-c5ccc(F)cc5C)c4O)cc3F)ccnc2cc1OC [Compound 208, N-[3-Fluoro-4-[[7-methoxy-6-(2-methoxyethoxy)-1,5-naphthyridin-4-yl]oxy]phenyl]-5-(4-fluoro-2-methylphenyl)-4-hydroxy-2,6-dimethylpyridine-3-carboxamide]",< 100 nM,< 100 nM,< 100 nM,< 100 nM,,,
"COc1cc2nccc(Oc3ccc(NC(=O)c4cn(CC(F)F)c(C)c(-c5ccc(F)cc5)c4=O)cc3F)c2nc1OC [Compound 623, 1-(2,2-Difluoroethyl)-N-[4-[(6,7-dimethoxy-1,5-naphthyridin-4-yl)oxy]-3-fluorophenyl]-5-(4-fluorophenyl)-6-methyl-4-oxopyridine-3-carboxamide]",< 100 nM,,< 100 nM,< 100 nM,,,
"COc1cnc2c(Oc3ccc(NC(=O)c4cn(CCF)c(C)c(-c5ccc(F)cc5)c4=O)cc3F)ccnc2c1 [Compound 624, 1-(2-Fluoroethyl)-N-[3-fluoro-4-[(7-methoxy-1,5-naphthyridin-4-yl)oxy]phenyl]-5-(4-fluorophenyl)-6-methyl-4-oxopyridine-3-carboxamide]",< 100 nM,,< 100 nM,< 100 nM,,,
"COc1cnc2c(Oc3ccc(NC(=O)c4cn(CC(F)F)c(C)c(-c5ccc(F)cc5)c4=O)cc3F)ccnc2c1 [Compound 625, 1-(2,2-Difluoroethyl)-N-[3-fluoro-4-[(7-methoxy-1,5-naphthyridin-4-yl)oxy]phenyl]-5-(4-fluorophenyl)-6-methyl-4-oxopyridine-3-carboxamide]",< 100 nM,,< 100 nM,< 100 nM,,,
"COc1cnc2c(Oc3ccc(NC(=O)c4cn(C(F)F)c(C)c(-c5ccc(F)cc5)c4=O)cc3F)ccnc2c1 [Compound 626, 1-(Difluoromethyl)-N-[3-fluoro-4-[(7-methoxy-1,5-naphthyridin-4-yl)oxy]phenyl]-5-(4-fluorophenyl)-6-methyl-4-oxopyridine-3-carboxamide]",< 100 nM,,< 100 nM,< 100 nM,,,
"COc1cnc2c(Oc3ccc(NC(=O)c4cn(CCF)c(C)c(-c5ccc(F)cc5C)c4=O)cc3)ccnc2c1 [Compound 798, 1-(2-fluoroethyl)-5-(4-fluoro-2-methylphenyl)-N-[4-[(7-methoxy-1,5-naphthyridin-4-yl)oxy]phenyl]-6-methyl-4-oxopyridine-3-carboxamide]",< 100 nM,,< 100 nM,< 100 nM,,,
"COc1cnc2c(Oc3ccc(NC(=O)c4cn(CCF)c(C)c(-c5ccc(F)cc5C)c4=O)cc3F)ccnc2c1 [Compound 799, 1-(2-fluoroethyl)-N-[3-fluoro-4-[(7-methoxy-1,5-naphthyridin-4-yl)oxy]phenyl]-5-(4-fluoro-2-methylphenyl)-6-methyl-4-oxopyridine-3-carboxamide]",< 100 nM,,< 100 nM,< 100 nM,,,
"COc1cc2nccc(Oc3ccc(NC(=O)c4cn(CCF)c(C)c(-c5ccc(F)cc5C)c4=O)cc3)c2nc1OC [Compound 800, N-[4-[(6,7-dimethoxy-1,5-naphthyridin-4-yl)oxy]phenyl]-1-(2-fluoroethyl)-5-(4-fluoro-2-methylphenyl)-6-methyl-4-oxopyridine-3-carboxamide]",< 100 nM,,< 100 nM,< 100 nM,,,
"COc1cc2nccc(Oc3ccc(NC(=O)c4cn(CCF)c(C)c(-c5ccc(F)cc5C)c4=O)cc3F)c2nc1OC [Compound 801, N-[4-[(6,7-dimethoxy-1,5-naphthyridin-4-yl)oxy]-3-fluorophenyl]-1-(2-fluoroethyl)-5-(4-fluoro-2-methylphenyl)-6-methyl-4-oxopyridine-3-carboxamide]",< 100 nM,,< 100 nM,< 100 nM,,,
"COc1nc2c(Oc3ccc(NC(=O)c4cn(C)c(C)c(-c5ccc(F)cc5)c4=O)cc3F)ccnc2cc1N [Compound 803, N-[4-[(7-amino-6-methoxy-1,5-naphthyridin-4-yl)oxy]-3-fluorophenyl]-5-(4-fluorophenyl)-1,6-dimethyl-4-oxopyridine-3-carboxamide]",,,,,< 100 nM,< 100 nM,< 100 nM
"COc1nc2c(Oc3ccc(NC(=O)c4c(C)nc(C)c(-c5ccc(F)cc5C)c4O)cc3F)ccnc2cc1N [Compound 804, N-[4-[(7-amino-6-methoxy-1,5-naphthyridin-4-yl)oxy]-3-fluorophenyl]-5-(4-fluoro-2-methylphenyl)-4-hydroxy-2,6-dimethylpyridine-3-carboxamide]",,,,,< 100 nM,< 100 nM,< 100 nM
"COc1cc(F)ccc1-c1cn(CCF)c(C)c(C(=O)Nc2ccc(Oc3ccnc4cc(OC)c(OC)nc34)c(F)c2)c1=O [Compound 805, N-[4-[(6,7-dimethoxy-1,5-naphthyridin-4-yl)oxy]-3-fluorophenyl]-1-(2-fluoroethyl)-5-(4-fluoro-2-methoxyphenyl)-2-methyl-4-oxopyridine-3-carboxamide]",,,,,< 100 nM,< 100 nM,< 100 nM
"COc1cc2nccc(Oc3ccc(NC(=O)c4c(C)n(CCF)cc(-c5ccc(F)c(C)c5)c4=O)cc3F)c2nc1OC [Compound 806, N-[4-[(6,7-dimethoxy-1,5-naphthyridin-4-yl)oxy]-3-fluorophenyl]-1-(2-fluoroethyl)-5-(4-fluoro-3-methylphenyl)-2-methyl-4-oxopyridine-3-carboxamide]",,,,,< 100 nM,< 100 nM,< 100 nM
"COc1cnc2c(Oc3ccc(NC(=O)c4c(C)n(CCF)cc(-c5ccc(F)c(F)c5)c4=O)cc3F)ccnc2c1 [Compound 807, 5-(3,4-difluorophenyl)-1-(2-fluoroethyl)-N-[3-fluoro-4-[(7-methoxy-1,5-naphthyridin-4-yl)oxy]phenyl]-2-methyl-4-oxopyridine-3-carboxamide]",,,,,< 100 nM,100 to 300 nM,< 100 nM
